Laboratory results taken from the NIST ThermoML archive (doi:10.1016/j.jct.2016.09.036).
± gives the expanded uncertainty stated by the source.

Key:
[1] = Molar enthalpy of transition or fusion; conditions: Crystal 1; DSC
[2] = for mass density: 298.15 K, 101.33 kPa

Molar enthalpy of transition or fusion [1]: 11.2 ± 0.502 kcal/mol | mass density ([2]; Crystal 1, Pycnometric method): 1517.1 ± 2.1 kg/m3 | mass density ([2]; Crystal 1, X-ray diffraction): 1516.7 ± 7.4 kg/m3 | mass density ([2]; Metastable crystal, Pycnometric method): 1355.3 ± 2.1 kg/m3 | mass density ([2]; Metastable crystal, X-ray diffraction): 1362.9 ± 25 kg/m3 | Triple point temperature ([2]; Crystal 1, DSC): 501.41 ± 7.8 K
Compound: O=C(NC[C@H]1CN(c2ccc(N3CCOCC3=O)cc2)C(=O)O1)c1ccc(Cl)s1 [Rivaroxaban]
